Earlier results in patent publication US4436732A, “Medicated compound for treating diseases infected by virus of the herpes group” (priority 1981, dated 1984).

Settings: known preparations, background; cited from earlier work

O=c1[nH]cc(F)c(=O)[nH]1 [5-fluorouracyl]
toxicity: rather toxic
